The source of these data is patent US20170281508A1, “Peptides and Their Use in the Treatment of Skin” (AVON PRODUCTS, INC., priority 2014, published 2017).

Peptide text beside a SMILES is read from it.

The subject of the assay is Human dermal fibroblast cells. Description: Pro-collagen I production in human dermal fibroblast cells (HTRF human pro-collagen I kit). The settings on record: peptide concentration 0.001% in DMEM media without FBS, 48 h treatment, percent change relative to vehicle control. The class given is cell-based. On the procedure: Human dermal fibroblast cells were grown in a 96 well plate in DMEM media (available from Corning, N.Y.) supplemented with 10% Fetal Bovine Serum (FBS) and L-glutamine (0.07×10^5 cells/plate). After reaching about 75% confluence, cells were transferred into DMEM media without FBS and incubated for 4-6 hours. Next, cells were treated with peptide of Formula I at 0.00001%, 0.0001%, 0.001% final concentration in DMEM media without FBS for 48 h. After treatment the media were collected, and cell viability was measured using MTT. The amount of secreted collagen was tested in the media using HTRF human pro-collagen I kit (Cisbio Inc, Bedford, Mass.).
Results are summarized in Table 1 below as percent change of pro-collagen I production relative to vehicle control: […]
A general note: TR-FRET usually uses a lanthanide donor and a delayed reading to cut background.

On to `CCC(C)C(NC(=O)C(N)CCC(N)=O)C(=O)NC(CC(C)C)C(=O)NC(CO)C(=O)NC(CCCCN)C(=O)NC(CC(C)C)C(=O)NC(CCCNC(=N)N)C(=O)NC(CC(C)C)C(=O)O` (stereo not drawn) [QILSKLRL (SEQ ID NO: 1), Gln-Ile-Leu-Ser-Lys-Leu-Arg-Leu] (H-QILSKLRL-OH; configuration not given here), for which the “Increase in Pro-Collagen I Production” value was “+10-30%”. In addition, the “Increase in Pro-Collagen I Production” value (listed as peptide of Formula I) was 10-30%.
